Patent US20230107216A1, “PANTETHEINE DERIVATIVES AND USES THEREOF” (Comet Therapeutics, Inc., priority 2018, published 2023)
Where two headings read alike, the source gives them in different places.

Tests used:
[1] = tested on: Methylmalonic Acidemia (MMA) primary fibroblasts GM01673; assay: Mitochondrial respiration, XFe96 Extracellular Flux Analyzer (OCR/ECAR), MMA fibroblasts GM01673; assay type: cell-based; conditions: Homo sapiens, Fibroblast, assay condition A (10 mM glucose, 2 mM L-glutamine, 1 mM pyruvate, 10% FBS), 50 μM, read-out: Increase in Maximal Respiratory Capacity AUC
Experimental: The effect of the compounds of the present disclosure on mitochondrial respiration was measured with a XFe96 Extracellular Flux Analyzer (Seahorse Bioscience, Agilent Technologies) and Oxygen consumption Rate (OCR) and Extracellular acidification rate (ECAR) determined.
Cell culture and treatments. Primary adherent fibroblasts were cultured in minimum essential medium (MEM) (Gibco, 25030081) supplemented with 2 mM L-Glutamine (Gibco, 25030081), 15% fetal bovine serum (FBS) (Gibco, 26400044) and 1% penicillin/streptomycin (Gibco, 5140122) at 37° C. and 5% CO2. Cells were collected for either passaging or experiment at ˜70-80% confluence. Cells were obtained by trypsinization and seeded at 20000 cells/well in cell culture microplates (Seahorse Bioscience, 101085-004) and allowed to adhere for 16 hours in culture media.
By profiling different primary cells and/or optimizing their culture media or environmental components one can select cell lines and/or conditions that are appropriate for the biological or disease model. In the present example, 24 hours prior to OCR and ECAR profiling, media was changed to Dulbecco's Modified Eagle Medium (DMEM, Agilent Seahorse 103575-100) with the appropriate supplements for the different primary cells (10 mM glucose, 2 mM L-glutamine, 1 mM pyruvate, 10% FBS; 1 mM glucose, 2 mM L-glutamine, 1 mM pyruvate, 10% FBS; 10 mM glucose, 10% FBS; 5 mM glucose 10% FBS; 1 mM glucose 10% FBS). Cells used in this example were: Propionic Acidemia (PA) (GM00371, GM03590 Coriell Institute for Medical Research, Tsi 6337, Tsi 4626, Tsi 3618 Trans-Hit Bio), Methylmalonic Acidemia (MMA) (GM01673, Coriell Institute for Medical Research, Tsi 5224 Trans-Hit Bio), Branched chain ketoacid dehydrogenase kinase (BCKDK) (GM00612, GM00649 Coriell Institute for Medical Research), Subnormal activation of pyruvate dehydrogenase complex (PDH) (GM01503 Coriell Institute for Medical Research), Very long-chain acyl-CoA dehydrogenase (VLCAD) (GM17475), Leigh Syndrome (LS) (GM03672, GM13411 Coriell Institute for Medical Research), Pyruvate Carboxylase Deficiency (PC) (GM00444 Coriell Institute for Medical Research), Glutaric Acidemia-I (GA) (GM10653), Friedreich's Ataxia (FXN) (GM04078 Coriell Institute for Medical Research, Huntington's disease (HD) (GM21756 Coriell Institute for Medical Research), Ornithine Transcarbamylase Deficiency (OTC) (GM12756 Coriell Institute for Medical Research), Kearns-Sayre Syndrome (KSS) (GM06225 Coriell Institute for Medical Research).
One hour before the assay, the cells were washed with freshly prepared unbuffered serum free-Seahorse XF Assay medium (Seahorse Bioscience, North America, USA, 103575-100) with the same supplements as for the previous 24 hour incubation.
After baseline measurements of OCR, cells were challenged with compounds of the present disclosure at different concentrations (10 to 50 μM) or vehicle (DMSO, 0.1%) and a post-compound baseline was recorded. OCR was measured after sequentially adding to each well 1 μg/ml oligomycin (inhibitor of ATP synthase Sigma-Aldrich, 753531), then maximal OCR was determined with carbonyl cyanide 4-(trifluoromethoxy) phenylhydrazone (FCCP, Sigma-Aldrich, C2920), (uncoupler of oxidative phosphorylation) and 0.5 μM of rotenone (Sigma-Aldrich, R8875) plus antimycin A (Sigma-Aldrich, A8674) (inhibitors of mitochondrial complex I and III) for determination of rotenone-antimycin insensitive respiration together with Hoechst for nuclear staining in situ when normalized to cell counts. After the analysis and nuclear staining, the XFp microplate was transferred to the Cytation 5, and the nuclear images were captured, the individual nuclei were identified and counted by BioTek Gen5 software. Data were expressed as pmol of O2 per minute and normalized by nuclear staining and baselined to pre-compound addition.
Assay conditions were as stated below.
Assay specifics on assay conditions are indicated below when readouts were normalized to cell counts. […]

[2] = tested on: primary fibroblasts GM00649, GM06225, GM00612, GM00444, GM03672; assay: MMP, ROS and ATP multiplex (ArrayScan); assay type: cell-based; conditions: Homo sapiens, Fibroblast; Leigh GM03672; procedure Example 838; 50 μM (table line r25); read-out: Decreased ROS by at least 10%
Experimental: Cell culture and treatments. Primary adherent fibroblasts were cultured in minimum essential medium (MEM) (Gibco, 25030081) supplemented with 2 mM L-Glutamine (Gibco, 25030081), 15% fetal bovine serum (FBS) (Gibco, 26400044) and 1% penicillin/streptomycin (Gibco, 5140122) at 37° C. and 5% CO2. Cells were collected for either passaging or experiment at ˜70-80% confluence. Cells were obtained by trypsinization and seeded at 10000 cells/well in cell culture microplates (Seahorse Bioscience, 101085-004) and allowed to adhere for 16 hours in culture media. After media was refreshed with DMEM (Agilent Seahorse 103575-100) supplemented with 1 mM glucose and 10% FBS (Gibco, 26400044). At the end of the incubation period, the cells were loaded with the relevant dye/antibody for each cell health marker. The assay provided simultaneous measurement of cell health parameters including cell count, ROS formation (DHE), mitochondrial membrane potential (MitoTracker®) and cellular ATP content (CellTiter-Glo®, Promega). The plates were then scanned using an automated fluorescent cellular imager, ArrayScan® (Thermo Scientific Cellomics). Assay conditions were optimized by one skilled in the art.
Primary cells used in this example were obtained from Coriell Institute for Medical Research and consisted of GM00649, MSUD (Maple Syrup Urine Disease) Tyle IA; GM06225, Kearns-Sayre Syndrome; GM00612, MSUD (Maple Syrup Urine Disease) Tyle II GM00444, Pyruvate Carboxylase Deficiency and GM03672, Leigh Syndrome.

[3] = tested on: Propionic Acidemia (PA) primary fibroblasts GM00371; assay: Mitochondrial respiration, XFe96 Extracellular Flux Analyzer (OCR/ECAR), PA fibroblasts GM00371; assay type: cell-based; conditions: Homo sapiens, Fibroblast, read-out: Increase in Maximal Respiratory Capacity AUC
[4] = tested on: Leigh Syndrome (LS) primary fibroblasts GM03672; assay: NADP+/NADPH (NADP/NADPH-Glo), Leigh fibroblasts GM03672; assay type: cell-based; conditions: Homo sapiens, Fibroblast, 24h, read-out: Increase in Total NADP+ + NADPH
Experimental: Primary adherent fibroblasts were cultured in minimum essential medium (MEM) (Gibco, 25030081) supplemented with 2 mM L-Glutamine (Gibco, 25030081), 15% fetal bovine serum (FBS) (Gibco, 26400044) and 1% penicillin/streptomycin (Gibco, 5140122) at 37° C. and 5% CO2. Cells were collected for either passaging or experiment at ˜70-80% confluence. Cells were obtained by trypsinization and seeded in cell culture microplates either white plate (Thermo Fisher Scientific, 152028) for luminescent measurement or black plate (Thermo Fisher Scientific, 165305) for fluorescent based read out for different assays listed below. Cells were obtained by trypsinization and […] were seeded and allowed to adhere for 16-18 hours to have confluency around 70-80% in the cell well with culture media. After 24 hours prior to measurements (37° C., 5% CO2) media was changed to Dulbecco's Modified Eagle Medium (DMEM, Agilent Seahorse cat #103575-100) with the appropriate supplements as stated below.
Primary fibroblasts assayed were Propionic Acidemia (PA) (GM03590 Coriell Institute for Medical Research, Tsi 6337 Trans-Hit Bio), Methylmalonic Acidemia (MMA) (Tsi 5224 Trans-Hit Bio), Subnormal activation of pyruvate dehydrogenase complex (PDH) (GM01503 Coriell Institute for Medical Research), Very long-chain acyl-CoA dehydrogenase (VLCAD) (GM17475), Leigh Syndrome (LS) (GM03672, GM13411 Coriell Institute for Medical Research), Pyruvate Carboxylase Deficiency (PC) (GM00444 Coriell Institute for Medical Research). 10 μM of Compounds were added for 2 hours in PA, MMA lines and for 24h for the other fibroblast lines.
Assay was performed according to manufacturer instructions (NADP+/NADPH-Glo Assay Promega, G9082). Assay required a plate for total measurement of NADP+/NADPH and a plate for individual measurement of NADP+ or NADPH. For every assay a 12-point standard curve is prepared ranging from 400 nM to 0.625 nM. Media is removed and replaced with 50 μl of PBS for both assays.
For individual NADP+/NADPH measurements, 50 μl of 1% DTAB (Sigma, D5047) (cell lysis reagent) in 0.2N NaOH was added to the plates and 100 μl of lysate was split into two plates with 50 μl each from which ratio of NADP/NADPH can be calculated. 25 μl of 0.4N HCl were added to the NADP+ plates and both NADP+ and NADPH plates were heated at 60° C. for 15 minutes. The acid and heat treatment destroyed NADPH allowing individual NADP+ measurements while heating in basic conditions destroys NADP+ allowing individual NADPH measurement. After 15 minutes plates were allowed to come to room temperature and Trizma base (Sigma, T1699) was added to the NADP+ plates to neutralize the acid and HCl Trizma hydrochloride (Sigma, T2694) was added to the NADPH plates. The NADNADPH glo reagent was prepared by adding 125 μl of NAD cycling substrate, 125 μl of reductase, 125 μl of reductase substrate, 125 μl NAD cycling enzyme to a total of the 25 ml of NAD GLO reagent. 1:1 ratio of total volume of reagent was added to the individual NADP+, NADPH measurements (total 100 μl) and 50 μl were added for the total NAD/NADPH measurements. Luminescence was measured for 30-60 minutes within the linear range.
A total dead cell count was performed as described in Example 817 and only alive cells were used for analysis.

[5] = tested on: Venular Endothelial cells (HUVEC) (4H system); assay: BioMAP 4H system (IL-4 and histamine); assay type: cell-based, human; conditions: 1 uM, procedure of Example 826
[6] = tested on: Peripheral blood mononuclear cells co-cultured with venular endothelial cells (HUVEC) (LPS system); assay: BioMAP LPS system; assay type: cell-based, human; conditions: procedure of Example 827
[7] = tested on: Bronchial epithelial cells co-cultured with dermal fibroblast (BF4T system); assay: BioMAP BF4T system (TNFα and IL-4); assay type: cell-based, human; conditions: Homo sapiens, 24 h; 10 uM; procedure of Example 830; read-out: % increase in VCAM-1
[8] = tested on: Dermal fibroblasts (HDF3CGF system); assay: BioMAP HDF3CGF system (IL-1β, TNFα, IFNγ, EGF, bFGF, PDGF-BB); assay type: cell-based, human; conditions: 10 uM; procedure of Example 833
[9] = tested on: Peripheral blood mononuclear cells co-cultured with B-cells (BT system); conditions: 1 uM; procedure of Example 829
[10] = tested on: Peripheral blood mononuclear cells co-cultured with B-cells (BT system); assay: cells; conditions: Homo sapiens, 72 h, read-out: % increase in sIL-6
[11] = tested on: primary fibroblasts (healthy controls and PA, MMA, BCKDK, PDH, VLCAD, LS, PC, GA, VLCFA, KSS, FXN, HD); assay: Measurement of ROS (H2DCFDA) in primary fibroblasts; assay type: cell-based, human; conditions: Homo sapiens, Fibroblast; HD GM21756; procedure Example 812; Assay Condition C; read-out: Decreased ROS by at least 30%
In short: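 Patient and healthy-control primary fibroblasts switched to supplemented DMEM 24 h before assay, then treated with compound (10 μM) plus H2DCFDA (22 μM) for 2 h (PA, MMA lines) or 24 h (other lines). Kinetic fluorescence at 492/527 nm over 60 min; only live cells analysed.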

CCOC(=O)C(=O)SCCNC(=O)CCNC(=O)[C@H](O)C(C)(C)COP(=O)(O)O [Compound 61]
activation at 50 µM [1]: ≥ 10%
inhibition at 50 µM [2]: ≥ 10%

CC(C)(CO)[C@@H](O)C(=O)NCCC(=O)NCCSC(CC(=O)O)C(=O)O (stereo partly drawn) [Compound 46, 2-[(2-[3-[(2R)-2,4-dihydroxy-3,3-dimethylbutanamido]propanamido]ethyl)sulfanyl]butanedioic acid]
activation at 50 µM ([3]; assay condition C (10 mM glucose, 10% FBS), 50 μM): ≥ 10%
activation at 10 µM ([4]; Leigh GM03672 P8, assay condition B (1 mM glucose, 2 mM L-glutamine, 1 mM pyruvate, 10% FBS)): ≥ 10%
% increase in E-Selectin [5]: ≥10%
inhibition at 1 µM ([5]; Homo sapiens, HUVEC, 24 h, read-out: % decrease in E-Selectin): ≥ 10%
% increase in sPGE2 ([6]; 1 uM): ≥10%
activation at 10 µM ([6]; Homo sapiens, HUVEC, 24 h, 10 uM, read-out: % increase in sTNFα): ≥ 10%
activation at 10 µM [7]: ≥ 10%
% decrease in Collagen I [8]: ≥10%
% decrease in B-cell proliferation [9]: ≥20%
% decrease in sIL-2 [9]: ≥20%
% decrease in sTNFα [9]: ≥20%
activation at 10 µM [10]: ≥ 10%

CCC(=O)SCCNC(=O)CCNC(=O)[C@H](O)C(C)(C)CO [Compound 398, (2R)-2,4-dihydroxy-3,3-dimethyl-N-(2-[[2-(propanoylsulfanyl)ethyl]carbamoyl]ethyl)butanamide]
activation at 10 µM ([3]; assay condition D (1 mM glucose, 10% FBS), 10 μM): ≥ 10%
inhibition at 10 µM [11]: ≥ 30%
activation at 10 µM ([4]; Leigh GM03672 P9, assay condition A (10 mM glucose, 2 mM L-glutamine, 1 mM pyruvate, 10% FBS)): ≥ 10%
